The source of these data is patent US8980544B2, “Boronic and borinic acid compounds as inhibitors of sulfenic acid-containing proteins” (The Penn State Research Foundation, priority 2012, dated 2015).

Series [1] in a line: pKa by half-neutralization technique in acetonitrile-water. It is filed as physicochemical. The method, then: The final volume of the solutions is 5 mL. The averaged pKa values from duplicate measurements are reported, and used for analysis.
It should be noted that the pKa values determined this way are not corrected for the change in the autoprotolysis constant of the solution due to mix solvent system.

Series [2] addresses T1, iron-based NHase from Rhodococcus erythropolis AJ270 (Rhodococcus erythropolis, UniProt P13448).
T1 construct: purchased Prozomix Limited
T1 sequence (P13448 1-207): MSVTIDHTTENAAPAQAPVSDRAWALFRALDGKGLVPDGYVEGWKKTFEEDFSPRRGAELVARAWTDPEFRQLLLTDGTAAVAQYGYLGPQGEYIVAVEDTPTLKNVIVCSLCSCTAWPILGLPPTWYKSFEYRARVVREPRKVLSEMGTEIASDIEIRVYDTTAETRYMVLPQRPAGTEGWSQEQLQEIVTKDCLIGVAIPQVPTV
T1 sequence (P13449 1-212 partner): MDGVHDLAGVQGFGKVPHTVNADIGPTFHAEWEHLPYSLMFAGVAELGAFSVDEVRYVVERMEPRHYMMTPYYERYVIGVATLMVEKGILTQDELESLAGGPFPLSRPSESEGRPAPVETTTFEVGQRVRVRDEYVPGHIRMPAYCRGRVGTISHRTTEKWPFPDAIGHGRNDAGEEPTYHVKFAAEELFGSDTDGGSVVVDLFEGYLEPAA
The series is described as follows: Enzymatic inhibition of nitrile hydratase (NCTB conversion, 412 nm). It is filed as biochemical. As to conditions: for Average rate (abs/min): 1 mM NCTB, 23° C.; for Rate relative to NHase: NHase without additive = 100%; for Activity: nmol thiolate product per minute per mg freeze-dried NHase powder. The method, then: Here, the catalytic efficiency of the iron-based NHase from Rhodococcus erythropolis AJ270 (purchased from Prozomix Limited, Station court, Haltwhistle, Northumberland, NE49 9HN, UK; see, proxomix.com) was assayed in the presence of a known sulfenic acid trap (dimedone) and four boronic acid derivatives. The chosen assay [Sari et al., J. Inorg. Biochem. 2007 101:614-622] was the conversion of 2-nitro-5-thiocyanatobenzoic acid (NCTB) into formamide and 5-mercapto-2-nitrobenzoic acid.
The freeze-dried powder from Prozomix was shipped at room temperature and stored at −20° C. upon arrival. The enzyme was reconstituted at 20 mg/mL in 50 mM phosphate buffer (pH 7.0) with 40 mM butyric acid. These were similar conditions to those described in the Prozomix protocol, the main difference being the use of phosphate buffer instead of Tris buffer; by itself, NHase prepared in Tris had the same reactivity as samples prepared in phosphate buffer. The solution was exposed to 400 W white light for 25 minutes on ice to permit for photo-reactivation of the enzyme.
The kinetic studies were conducted by diluting the stock solution of NHase into de-ionized distilled water (ddH2O) to get at about 0.33 mg/mL of freeze-dried NHase powder provided by Prozomix (used without further manipulation) in solution. Appropriate amounts of PBA (phenyl boronic acid; 2 g), BOXY ((2-hydroxylmethyl)-benzeneboronic acid hemiester; 2A), 3BrB (3-bromobenzeneboronic acid; 2d), or dimedone were added to the mixtures so that the final concentrations of the boronic acids/dimedone were 0, 0.5, 1.0, 2.0, or 2.5 mM.
After permitting the newly composed mixtures to sit at room temperature (at about 23° C.) for five minutes, NCTB was added so that the final NCTB concentration equalled 1 mM. The final volume of the mixtures was 1 mL in UV-cells with 1 cm path length. The final concentration of the phosphate buffer was 3.6 mM. The progress of the reaction (release of the thiolate product at 412 nm; extinction coefficient at 412 nm=13600/M/cm) [Sari et al., J. Inorg. […] The rates of the reaction were determined from fitting the first 4 minutes of the absorbance vs. time traces to a standard linear equation. The activity values were calculated as nmol of thiolate product generated per minute per mg of freeze-dried NHase powder. The reaction rates are reported below in Table 4, below, as averages of duplicate kinetic studies.

The conditions of series [3]: literature value; cited from earlier work.
Series [4] in a line: Spectrophotometric (UV/vis) titration of boronic acids 2 against the sodium salt of sulfenic acid 1, incl. reversibility with NaOH. The following applies: for Kd: read-out: Averaged Kd from spectrophotometric titrations.
Method: The titration studies were performed using a Cary 100 Bio UV/vis spectrophotometer thermostated at 22° C. […] Each titration study was completed within 10 minutes.
The initial solution contained 0.8 mM of the sodium salt of 1.
[5] abbreviates: 15% (v/v) acetonitrile-water mixture, 15% (v/v) acetonitrile-water, half-neutralization, averaged duplicates, Table 1, read-out: pKa in 15% acetonitrile-water at 22° C.
The mark [6] stands for this setting: 70% (v/v) acetonitrile-water mixture, read-out: Averaged pKa value from half neutralization method in 70% (v/v) acetonitrile-water.
Where [7] appears, read: 15% acetonitrile-water mixture, 15% acetonitrile-water, as listed in Table 2, read-out: pKa in 15% acetonitrile-water.
The mark [8] stands for this setting: complex 1:2, 70% (v/v) acetonitrile-water, 22° C.
Setting [9] is: complex 1:2, 15% (v/v) acetonitrile-water.

Molecules are shown by their SMILES. Read-outs that look alike come from different tables or passages of the source. Marks after values point to notes of the source that are not given here.

For the compound `OB(O)c1ccc(Br)cc1` [Compound 2e, 4-bromo-benzeneboronic acid], the pKa in series [1] (setting [5]) was determined as 9.1 ± 0.1.
In the case of `CC1(C)CC(=O)CC(=O)C1` [Dimedone, 5,5-dimethyl-1,3-cyclohexanedione, reference compound], the “Average rate (abs/min)” value in series [2] ([B]/[Dimedone] = 0.5 mM) stood at 0.00274 ± 0.00006 abs/min; in series [2] ([B]/[Dimedone] = 1.0 mM) it was 0.0017 ± 0.0004 abs/min; in series [2] ([B]/[Dimedone] = 2.0 mM), 0 abs/min; in series [2] ([B]/[Dimedone] = 2.5 mM), 0 abs/min. The “Rate relative to NHase” value in series [2] ([B]/[Dimedone] = 0.5 mM) was found to be 61%; in series [2] ([B]/[Dimedone] = 1.0 mM), 37%; in series [2] ([B]/[Dimedone] = 2.0 mM) it was 0%***; in series [2] ([B]/[Dimedone] = 2.5 mM) it was 0%. In addition, the “Activity” value in series [2] ([B]/[Dimedone] = 0.5 mM) stood at 0.611 nmol/min/mg; in series [2] ([B]/[Dimedone] = 1.0 mM), 0.406 nmol/min/mg; in series [2] ([B]/[Dimedone] = 2.0 mM), 0 nmol/min/mg; in series [2] ([B]/[Dimedone] = 2.5 mM) it was 0 nmol/min/mg.
As for `OB(O)c1ccc(F)cc1` [Compound 2f, 4-fluorobenzene-boronic acid], the pKa in series [1] (setting [5]) is 9.4 ± 0.02.
As for `O=C1c2ccccc2C(=O)c2c(SO)cccc21` [Compound 1, anthraquinone-1-sulfenic acid, reference compound], the pKa in series [1] (setting [5]) came out at 7.61 ± 0.02; in series [1] (setting [6]) it was 8.6 ± 0.1. In addition, the “pKa value reported in Kice et al., J. Org. Chem. 1989” value in series [3] is listed as 7.51.
Turning to `COc1ccc(B(O)O)cc1` [Compound 2h, 4-methoxybenzeneboronic acid], in series [1] (setting [5]), the pKa was 10.13 ± 0.02.
Still for that read-out and setting: then `O=[N+]([O-])c1ccc(B(O)O)cc1` [Compound 2b, 4-nitrobenzeneboronic acid], with 7.39 ± 0.05.
Take `OB(O)c1ccccc1` [Compound 2g, phenylboronic acid]: the results for the pKa in series [1] (setting [5]) and in series [1] (setting [7]) were 9.5 ± 0.06 and 9.38, respectively. Also, the “Average rate (abs/min)” value in series [2] ([B]/[Dimedone] = 0.5 mM) turned out to be 0.0043 ± 0.0004 abs/min; in series [2] ([B]/[Dimedone] = 1.0 mM) it was 0.0041 ± 0.0002 abs/min; in series [2] ([B]/[Dimedone] = 2.0 mM), 0.00382 ± 0.00004 abs/min; in series [2] ([B]/[Dimedone] = 2.5 mM) it was 0.0038 ± 0.0001 abs/min. Further, the “Rate relative to NHase” value in series [2] ([B]/[Dimedone] = 0.5 mM) is 96%; in series [2] ([B]/[Dimedone] = 1.0 mM) it was 91%; in series [2] ([B]/[Dimedone] = 2.0 mM) it was 87%; in series [2] ([B]/[Dimedone] = 2.5 mM), 83%. Further, the “Activity” value came out at 0.968 nmol/min/mg in series [2] ([B]/[Dimedone] = 0.5 mM), 1.006 nmol/min/mg in series [2] ([B]/[Dimedone] = 1.0 mM), 0.851 nmol/min/mg in series [2] ([B]/[Dimedone] = 2.0 mM) and 0.931 nmol/min/mg in series [2] ([B]/[Dimedone] = 2.5 mM). Moreover, the “Averaged -log (Kd) in 70% acetonitrile-water at 22° C.” value in series [4] (setting [8]) is 3.96 ± 0.04. Further, the Kd in series [4] (setting [9]) was determined as 200 µM.
In the case of `OB1OCc2ccccc21` [Compound 2A, 2-(hydroxymethyl)benzeneboronic acid hemiester], the pKa was found to be 7.8 in series [1] (setting [5]), 7.8 in series [1] (setting [7]) and 10.2 in series [1] (setting [6]). Besides, the “Average rate (abs/min)” value in series [2] ([B]/[Dimedone] = 0.5 mM) is given as 0.0039 ± 0.0002 abs/min; in series [2] ([B]/[Dimedone] = 1.0 mM), 0.0034 ± 0.0002 abs/min; in series [2] ([B]/[Dimedone] = 2.0 mM), 0.00266 ± 0.00008 abs/min; in series [2] ([B]/[Dimedone] = 2.5 mM) it was 0.00205 ± 0.00009 abs/min. The “Rate relative to NHase” value in series [2] ([B]/[Dimedone] = 0.5 mM) was determined as 87%; in series [2] ([B]/[Dimedone] = 1.0 mM), 74%; in series [2] ([B]/[Dimedone] = 2.0 mM), 61%; in series [2] ([B]/[Dimedone] = 2.5 mM), 45%. For the same compound, the “Activity” value in series [2] ([B]/[Dimedone] = 0.5 mM) was determined as 0.870 nmol/min/mg; in series [2] ([B]/[Dimedone] = 1.0 mM), 0.826 nmol/min/mg; in series [2] ([B]/[Dimedone] = 2.0 mM), 0.592 nmol/min/mg; in series [2] ([B]/[Dimedone] = 2.5 mM), 0.502 nmol/min/mg. Further, the “Effectiveness of NHase inhibition among the boronic acids examined” value in series [2] (comparison of PBA, BOXY, 3BrB, 0.5-2.5 mM) is “most effective”. Moreover, the “Averaged -log (Kd) in 15% acetonitrile-water at 22° C.” value in series [4] was determined as 3.8 ± 0.1. In series [4], the “Averaged -log (Kd) in 70% acetonitrile-water at 22° C.” value came to 3.90 ± 0.02. Moreover, the Kd in series [4] came out at 158 µM.
For the compound `OB(O)c1cccc(Br)c1` [Compound 2d, 3-Bromobenzene-boronic acid], the results for the pKa in series [1] (setting [5]) and in series [1] (setting [7]) were 8.55 and 8.48, respectively. Also, the “Average rate (abs/min)” value in series [2] ([B]/[Dimedone] = 0.5 mM) is reported as 0.0039 ± 0.0004 abs/min; in series [2] ([B]/[Dimedone] = 1.0 mM) it was 0.00369 ± 0.00009 abs/min; in series [2] ([B]/[Dimedone] = 2.0 mM), 0.00348 ± 0.0004 abs/min; in series [2] ([B]/[Dimedone] = 2.5 mM), 0.00319 ± 0.0007 abs/min. For the same compound, the “Rate relative to NHase” value came out at 87% in series [2] ([B]/[Dimedone] = 0.5 mM), 81% in series [2] ([B]/[Dimedone] = 1.0 mM), 79% in series [2] ([B]/[Dimedone] = 2.0 mM) and 69% in series [2] ([B]/[Dimedone] = 2.5 mM). Also, the “Activity” value in series [2] ([B]/[Dimedone] = 0.5 mM) came out at 0.878 nmol/min/mg; in series [2] ([B]/[Dimedone] = 1.0 mM), 0.903 nmol/min/mg; in series [2] ([B]/[Dimedone] = 2.0 mM), 0.775 nmol/min/mg; in series [2] ([B]/[Dimedone] = 2.5 mM), 0.782 nmol/min/mg. Further, the “Averaged -log (Kd) in 70% acetonitrile-water at 22° C.” value in series [4] (setting [8]) turned out to be 4.0 ± 0.1. Moreover, the Kd in series [4] (setting [9]) was 158 µM.
